Source: patent publication US20090318551A1, “USES OF ANALOGS OF 3-O-ACETYL-11-KETO-BETA-BOSWELLIC ACID” (priority 2004, published 2009)
Where a name gives a salt, the structure may show the parent alone.

Assays:
5-Lipoxygenase = assay: 5-Lox assay (colorimetric, ferric xylenol orange); type: biochemical; details: linoleic acid substrate, pH 6.3; for % inhibition @ 100 μM: 100 μM test substance; for % inhibition @ 250 μM: 250 μM test substance
Protocol: The AKBA analogs were screened for their 5-Lipoxygenase inhibitory potential using colorimetric method of Craig A. Gay et al (Anal Biochem., 304, 42 46, 2002). The assay mixture contained 50 mM phosphate buffer pH 6.3, 5-Lipoxygenase, various concentrations of test substances and linoleic acid in a total volume of 0.5 mL after 5 min incubation of above reaction mixture 0.5 ml ferric xylenol orange reagent was added and OD was measured after two minutes at 585 nm using spectrophotometer (varian). Controls were run along with test in a similar manner except using vehicle instead of test substance solution. Percent inhibition was calculated by comparing absorbance of test with that of control

Artemia salina = assay: Brine shrimp lethality (BSL) assay; type: in vivo; details: nauplii, viability/mortality after 24 hr; for LC50: Artemia salina, read-out: LD50 in mcM
Text: Brine shrimp lethality (BSL) assay is a simple bench top bioassay developed by McLaughlin, et. al. (Studies in Natural Product Chemistry, 9, page 383, 1991 and Am. Chem. Soc. Symp. Series, 534, page 114, 1992) and the results obtained by this assay have been reported to be corroborative with the cytotoxicities determined in 9KB and 9PS cells. The procedure involves hatching Artemia salina cysts in a cone shaped vessel and collecting active nauplii after 48 hr and treating with known concentrations of test substances and vehicle (control) in tubes each tube containing 10 nauplii and checking viability/mortality after 24 hr. Percentage lethality was calculated by comparing mean values of control and test sets of three tubes each. LC50 values were obtained from the graph plotted micro molar concentration against percent lethality.

5-LO = target: T1, 5-LO (Homo sapiens, UniProt P09917); details: compared with the six boswellic acids; cited from earlier work
T1 sequence (P09917 1-674): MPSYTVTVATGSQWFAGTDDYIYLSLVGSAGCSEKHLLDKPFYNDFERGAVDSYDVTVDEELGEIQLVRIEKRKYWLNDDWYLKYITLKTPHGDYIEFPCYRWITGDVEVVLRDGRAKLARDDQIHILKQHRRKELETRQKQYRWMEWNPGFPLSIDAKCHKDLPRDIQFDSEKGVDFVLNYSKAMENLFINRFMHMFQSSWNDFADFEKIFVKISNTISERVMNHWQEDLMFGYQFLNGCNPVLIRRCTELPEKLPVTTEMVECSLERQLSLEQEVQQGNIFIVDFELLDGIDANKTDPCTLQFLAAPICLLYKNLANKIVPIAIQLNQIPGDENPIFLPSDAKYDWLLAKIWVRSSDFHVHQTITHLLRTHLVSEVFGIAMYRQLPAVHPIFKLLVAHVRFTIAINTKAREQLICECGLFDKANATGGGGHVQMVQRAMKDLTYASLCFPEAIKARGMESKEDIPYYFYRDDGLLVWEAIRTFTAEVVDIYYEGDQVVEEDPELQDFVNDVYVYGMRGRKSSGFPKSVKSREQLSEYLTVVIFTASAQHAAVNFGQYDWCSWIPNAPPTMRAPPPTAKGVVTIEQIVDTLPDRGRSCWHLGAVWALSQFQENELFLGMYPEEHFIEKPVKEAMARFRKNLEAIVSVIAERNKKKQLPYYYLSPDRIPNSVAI

Row | Compound | % inhibition @ 100 μM (5-Lipoxygenase) [%] | % inhibition @ 250 μM (5-Lipoxygenase) [%] | LD50 in mcM (Artemia salina) [mcM] | inhibitory activity against 5-LO (in words) (5-LO) | LC50 (Artemia salina) [µM]
1 | 3-O-Acetyl-11-keto-β-boswellic acid [Compound B2, reference compound] | 18.7 | 31 | 5.5 | most pronounced inhibitory activity against 5-LO | –
2 | CC1CCC2(C)CCC3(C)C(=CC(=O)C4C5(C)CCC(OC=O)C(C)(C(=O)O)C5CCC43C)C2C1C (stereo not drawn) [Compound 1, 3-O-Formyl-11-keto-β-boswellic acid] | – | 5.5 | 55.0 | – | –
3 | C[C@@H]1CC[C@]2(C)CC[C@]3(C)C(=CC(=O)C4[C@@]5(C)CCC(OC(=O)CCl)[C@](C)(C(=O)O)C5CC[C@]43C)C2[C@H]1C (stereo partly drawn) [Compound 2, 3-O-(Chloroacetyl)-11-keto-β-boswellic acid] | – | 3.12 | – | – | 98
4 | COc1cc(C(=O)O[C@@H]2CC[C@@]3(C)C(CC[C@]4(C)C3C(=O)C=C3C5[C@@H](C)[C@H](C)CC[C@]5(C)CC[C@]34C)[C@@]2(C)C(=O)O)cc(O)c1O (stereo partly drawn) [Compound 3, 3-O-(5′-O-methylgalloyl)-11-keto-β-boswellic acid] | 27.4 | – | – | – | 33
5 | CC1CCC2(C)CCC3(C)C(=CC(=O)C4C5(C)CCC(OC(=O)CCC(=O)O)C(C)(C(=O)O)C5CCC43C)C2C1C (stereo not drawn) [Compound 4, 3-O -Succinyl-11-keto-β-boswellic acid] | – | 41.1 | 69.0 | – | –
6 | CC1CCC2(C)CCC3(C)C(=CC(=O)C4C5(C)CCC(OC(=O)C=Cc6ccc(O)cc6)C(C)(C(=O)O)C5CCC43C)C2C1C (stereo not drawn) [Compound 6, 3-O-[4′-Hydroxycinnamoyl]-11-keto-β-boswellic acid] | – | 11.3 | 6.0 | – | –
7 | COc1ccc(C=CC(=O)OC2CCC3(C)C(CCC4(C)C3C(=O)C=C3C5C(C)C(C)CCC5(C)CCC34C)C2(C)C(=O)O)cc1OC (stereo not drawn) [Compound 7, 3-O -(3′,4′-dimethoxycinnamoyl)-11-keto-β-boswellic acid] | – | 17.8 | 6.2 | – | –
8 | COc1cc(C=CC(=O)OC2CCC3(C)C(CCC4(C)C3C(=O)C=C3C5C(C)C(C)CCC5(C)CCC34C)C2(C)C(=O)O)cc(O)c1O (stereo not drawn) [Compound 8, 3-O-(3′,4′-Dihydroxy-5′-methoxycinnamoyl)-11-keto-β-boswellic acid] | – | 8.1 | 12.0 | – | –
9 | COC(=O)C1(C)C(OC(=O)CNC(=O)OC(C)(C)C)CCC2(C)C1CCC1(C)C2C(=O)C=C2C3C(C)C(C)CCC3(C)CCC21C (stereo not drawn) [Compound 9, Methyl 3-O-(N-Boc-glycyl)-11-keto-β-boswellate] | – | 16.7 | >100 | – | –
10 | C[C@@H]1CC[C@]2(C)CC[C@]3(C)C(=CC(=O)C4[C@@]5(C)CC[C@@H](OC(=O)CN)[C@](C)(C(=O)O)C5CC[C@]43C)C2[C@H]1C (stereo partly drawn) [Compound 10, 3-O-Glycyl-11-keto-β-boswellic acid hydrochloride] | 23.9 | – | 12.0 | – | –
11 | C[C@H](N)C(=O)O[C@@H]1CC[C@@]2(C)C(CC[C@]3(C)C2C(=O)C=C2C4[C@@H](C)[C@H](C)CC[C@]4(C)CC[C@]23C)[C@@]1(C)C(=O)O (stereo partly drawn) [Compound 11, 3-O-Alanyl-11-keto-β-boswellic acid hydrochloride] | 33.6 | – | 29.0 | – | –
12 | COC(=O)[C@]1(C)C2CC[C@]3(C)C(C(=O)C=C4C5[C@@H](C)[C@H](C)CC[C@]5(C)CC[C@]43C)[C@@]2(C)CC[C@@H]1O (stereo partly drawn) [Compound 12, Methyl 3β-hydroxy-11-ketours-12-en-24-oate] | – | 0.37 | – | – | > 100
13 | COC(=O)[C@]1(C)C2CC[C@]3(C)C(C(=O)C=C4C5[C@@H](C)[C@H](C)CC[C@]5(C)CC[C@]43C)[C@@]2(C)CC[C@@H]1Br (stereo partly drawn) [Compound 13, Methyl 3β-bromo-11-ketours-12-en-24-oate] | – | 17.6 | – | – | > 100
14 | COC(=O)[C@@]1(C)C(C#N)CC[C@@]2(C)C1CC[C@]1(C)C2C(=O)C=C2C3[C@@H](C)[C@H](C)CC[C@]3(C)CC[C@]21C (stereo partly drawn) [Compound 14, Methyl 3α-cyano-11-ketours-12-en-24-oate] | – | 3.71 | – | – | > 100
15 | COC(=O)[C@]1(C)C2CC[C@]3(C)C(C(=O)C=C4C5[C@@H](C)[C@H](C)CC[C@]5(C)CC[C@]43C)[C@@]2(C)CC[C@H]1S (stereo partly drawn) [Compound 15, Methyl 3α-thiohydroxy-11-ketours-12-en-24-oate] | – | 53.1 | – | – | 5.2
16 | COC(=O)[C@@]1(C)/C(=N\O)CC[C@@]2(C)C1CC[C@]1(C)C2C(=O)C=C2C3[C@@H](C)[C@H](C)CC[C@]3(C)CC[C@]21C (some centres unmarked) [Compound 16, Methyl 3-oximino-11-ketours-12-en-24-oate] | – | 41.6 | – | – | > 100
17 | CC(=O)OC1CC[C@@]2(C)C(CC[C@]3(C)C2C(=O)C=C2C4[C@@H](C)[C@H](C)CC[C@]4(C)CC[C@]23C)[C@@H]1C (some centres unmarked) [Compound 17, 3-Acetoxy-11-keto-24-norurs-12-ene] | – | 0 | – | – | > 100
18 | CC(=O)OC1CC[C@@]2(C)C(CC[C@]3(C)C2C(=O)C=C2C4[C@@H](C)[C@H](C)CC[C@]4(C)CC[C@]23C)[C@@]1(C)C(=O)OCCN(C)C (stereo partly drawn) [Compound 18, (2′-N,N-Dimethylaminoethyl) 3-O-acetyl-11-keto-β-boswellate] | 25.4 | – | – | – | > 100
19 | CC(=O)OC1CC[C@@]2(C)C(CC[C@]3(C)C2C(=O)C=C2C4[C@@H](C)[C@H](C)CC[C@]4(C)CC[C@]23C)[C@@]1(C)C(N)=O (stereo partly drawn) [Compound 19, 3-O-Acetyl-11-keto-β-boswellic acid amide] | – | 35.8 | – | – | 4.6
20 | CC(=O)OC1CC[C@@]2(C)C(CC[C@]3(C)C2C(=O)C=C2C4[C@@H](C)[C@H](C)CC[C@]4(C)CC[C@]23C)[C@@]1(C)C(=O)NN (stereo partly drawn) [Compound 20, N-(3-O-Acetyl-11-keto-β-boswelloyl)-hydrazide] | – | 54.3 | – | – | 2.3
21 | CC(=O)OC1CC[C@@]2(C)C(CC[C@]3(C)C2C(=O)C=C2C4[C@@H](C)[C@H](C)CC[C@]4(C)CC[C@]23C)[C@@]1(C)C(=O)NCCN (stereo partly drawn) [Compound 21, N-(3-O-Acetyl-11-keto-β-boswelloyl)-ethylenediamine] | – | 76.6 | – | – | 71
22 | CC(=O)OC1CC[C@@]2(C)C(CC[C@]3(C)C2C(=O)C=C2C4[C@@H](C)[C@H](C)CC[C@]4(C)CC[C@]23C)[C@@]1(C)C(=O)NCCO (stereo partly drawn) [Compound 22, N-(3-O-Acetyl-11-keto-β-boswelloyl)-2-aminoethanol] | – | 10.4 | – | – | > 100
23 | CC(=O)OC1CCC2(C)C(CCC3(C)C2C(=O)C=C2C4C(C)C(C)CCC4(C)CCC23C)C1(C)C(=O)N1CCNCC1 (stereo not drawn) [Compound 23, N-(3-O-Acetyl-11-keto-β-boswelloyl)-piperzine] | 34.9 | – | 0.88 | – | –
24 | CC(=O)OC1CC[C@@]2(C)C(CC[C@]3(C)C2C(=O)C=C2C4[C@@H](C)[C@H](C)CC[C@]4(C)CC[C@]23C)[C@@]1(C)N=C=O (some centres unmarked) [Compound 24, 3-Acetoxy-11-keto-24-norurs-12-en-4-isocyanate] | – | 0 | – | – | > 100
25 | CC(=O)OC1CC[C@@]2(C)C(CC[C@]3(C)C2C(=O)C=C2C4[C@@H](C)[C@H](C)CC[C@]4(C)CC[C@]23C)[C@@]1(C)N (some centres unmarked) [Compound 25, 3-Acetoxy-4-amino-11-keto-24-norurs-12-ene] | – | 60.5 | – | – | 6
26 | CC(=O)OC1CC[C@@]2(C)C(CC[C@]3(C)C2C(=O)C=C2C4[C@@H](C)[C@H](C)CC[C@]4(C)CC[C@]23C)[C@@]1(C)C#N (some centres unmarked) [Compound 26, 3-Acetoxy-4-cyano-11-keto-24-norurs-12-ene] | – | 9.8 | – | – | > 100
27 | C[C@@H]1CC[C@]2(C)CC[C@]3(C)C(=CC(O)C4[C@@]5(C)CC[C@@H](O)[C@](C)(C(=O)O)C5CC[C@]43C)C2[C@H]1C (stereo partly drawn) [Compound 27, 11-Hydroxy-β-boswellic acid] | – | 12.2 | – | – | 28.3
